test system: A549-NF-κB-SEAP reporter cells; assay: Inhibition of NF-κB-induced inflammation ([…] NINA Instant Assay, SEAP reporter); type: cell-based; conditions: compounds of formula (I); TNF-α stimulated reporter cells; test concentration not given
How it was run: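 Reporter cells reactivated 18 h at 37° C, pre-incubated 4.5 h with compound (0.01 up to 100 μM), then stimulated with 2 ng/ml TNF-α for 22 h. SEAP measured by CSPD chemiluminescence (40 min) after endogenous phosphatase inactivation; EC50 fitted from quadruplicates.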

Row | Compound | Biological activity (NF-κB inflammation assay, inhibition)
1 | O=C(O)C1=C(C(=O)N2CCC(c3nc(C(=O)N4CCN(c5cccc(C(F)(F)F)c5)CC4)cs3)CC2)CCC1 [compound 188] | + (“+” stands for 50-80% inhibition)
2 | O=C(O)C1CCCCC1C(=O)N1CCC(c2nc(C(=O)N3CCN(c4cccc(C(F)(F)F)c4)CC3)cs2)CC1 (stereo not drawn) [compound 189] | + (“+” stands for 50-80% inhibition)
3 | O=C(O)C1=C(C(=O)N2CCC(c3nc(C(=O)N4CCN(c5cccc(C(F)(F)F)c5)CC4)cs3)CC2)CCCC1 [compound 190] | + (“+” stands for 50-80% inhibition)
4 | O=C(O)C=CC(=O)N1CCC(c2nc(C(=O)N3CCN(c4cccc(C(F)(F)F)c4)CC3)cs2)CC1 [compound 191] | + (“+” stands for 50-80% inhibition)
5 | Cc1noc(C)c1S(=O)(=O)N1CCC(c2nc(C(=O)N3CCN(c4cccc(C(F)(F)F)c4)CC3)cs2)CC1 [compound 192] | + (“+” stands for 50-80% inhibition)
6 | O=C(c1csc(C2CCN(S(=O)(=O)c3c(F)c(F)c(F)c(F)c3F)CC2)n1)N1CCN(c2cccc(C(F)(F)F)c2)CC1 [compound 193] | + (“+” stands for 50-80% inhibition)
7 | O=C(c1csc(C2CCN(S(=O)(=O)c3cccs3)CC2)n1)N1CCN(c2cccc(C(F)(F)F)c2)CC1 [compound 194] | + (“+” stands for 50-80% inhibition)
8 | O=C(c1csc(C2CCN(S(=O)(=O)c3ccc(F)cc3Cl)CC2)n1)N1CCN(c2cccc(C(F)(F)F)c2)CC1 [compound 195] | + (“+” stands for 50-80% inhibition)
9 | O=C(c1csc(C2CCN(S(=O)(=O)c3ccccc3Br)CC2)n1)N1CCN(c2cccc(C(F)(F)F)c2)CC1 [compound 196] | + (“+” stands for 50-80% inhibition)
10 | O=C(c1csc(C2CCN(S(=O)(=O)c3c(Cl)nc4sccn34)CC2)n1)N1CCN(c2cccc(C(F)(F)F)c2)CC1 [compound 197] | + (“+” stands for 50-80% inhibition)
11 | O=C(c1csc(C2CCN(S(=O)(=O)Cc3ccccc3)CC2)n1)N1CCN(c2cccc(C(F)(F)F)c2)CC1 [compound 198] | + (“+” stands for 50-80% inhibition)
12 | O=C(c1csc(C2CCN(S(=O)(=O)c3ccc(Br)cc3)CC2)n1)N1CCN(c2cccc(C(F)(F)F)c2)CC1 [compound 199] | + (“+” stands for 50-80% inhibition)
13 | O=C(c1csc(C2CCN(S(=O)(=O)c3ccc(Cl)cc3Cl)CC2)n1)N1CCN(c2cccc(C(F)(F)F)c2)CC1 [compound 200] | + (“+” stands for 50-80% inhibition)
14 | O=C(c1csc(C2CCN(S(=O)(=O)c3cc(C(F)(F)F)cc(C(F)(F)F)c3)CC2)n1)N1CCN(c2cccc(C(F)(F)F)c2)CC1 [compound 201] | ++ (“++” means 80-90%)
15 | COc1ccc(Cl)cc1S(=O)(=O)N1CCC(c2nc(C(=O)N3CCN(c4cccc(C(F)(F)F)c4)CC3)cs2)CC1 [compound 202] | ++ (“++” means 80-90%)
16 | O=C(c1csc(C2CCN(S(=O)(=O)c3ccc(Br)s3)CC2)n1)N1CCN(c2cccc(C(F)(F)F)c2)CC1 [compound 203] | + (“+” stands for 50-80% inhibition)
17 | Cc1ccc(S(=O)(=O)N2CCC(c3nc(C(=O)N4CCN(c5cccc(C(F)(F)F)c5)CC4)cs3)CC2)cc1 [compound 204] | + (“+” stands for 50-80% inhibition)
18 | O=C(c1csc(C2CCN(S(=O)(=O)c3ccc(OC(F)(F)F)cc3)CC2)n1)N1CCN(c2cccc(C(F)(F)F)c2)CC1 [compound 205] | + (“+” stands for 50-80% inhibition)

Reference: patent US7601745B2, “Heterocyclic NF-kB inhibitors” (4SC AG, priority 2004, dated 2009)
